Reference: ChEMBL document CHEMBL1158176, “Flexible computational docking studies of new aminoglycosides targeting RNA 16S bacterial ribosome site” (Eur J Med Chem, 2008)

Test: Binding affinity to bacterial 16S RNA ribosomal A site by surface plasmon technique

Kd	SMILES
13 µM	NC[C@H]1O[C@H](O[C@H]2[C@@H](NCCNC(=O)[C@H]3O[C@@H](n4ccc(=O)[nH]c4=O)[C@H](O)[C@@H]3O)[C@@H](O)[C@H](N)C[C@@H]2N)[C@H](N)[C@@H](O)[C@@H]1O
79 µM	NC[C@H]1O[C@H](O[C@H]2[C@@H](NCCNC(=O)[C@H]3O[C@@H](n4ccc(N)nc4=O)[C@H](O)[C@@H]3O)[C@@H](O)[C@H](N)C[C@@H]2N)[C@H](N)[C@@H](O)[C@@H]1O
9 µM	Cc1cn([C@H]2C[C@H](O)[C@@H](C(=O)NCCN[C@H]3[C@@H](O)[C@H](N)C[C@H](N)[C@H]3O[C@H]3O[C@H](CN)[C@@H](O)[C@H](O)[C@H]3N)O2)c(=O)[nH]c1=O
10 µM	NC[C@H]1O[C@H](O[C@H]2[C@@H](NCCNC(=O)[C@H]3O[C@@H](n4cnc5c(N)ncnc54)[C@H](O)[C@@H]3O)[C@@H](O)[C@H](N)C[C@@H]2N)[C@H](N)[C@@H](O)[C@@H]1O
38 µM	Cc1cn([C@@H]2O[C@H](C(=O)NCCCCCCN[C@H]3[C@@H](O)[C@H](N)C[C@H](N)[C@H]3O[C@H]3O[C@H](CN)[C@@H](O)[C@H](O)[C@H]3N)[C@@H](O)[C@H]2O)c(=O)[nH]c1=O
104 µM	NC[C@H]1O[C@H](O[C@H]2[C@@H](NCCCCCCNC(=O)[C@H]3O[C@@H](n4ccc(N)nc4=O)[C@H](O)[C@@H]3O)[C@@H](O)[C@H](N)C[C@@H]2N)[C@H](N)[C@@H](O)[C@@H]1O
56 µM	Cc1cn([C@H]2C[C@H](O)[C@@H](C(=O)NCCCCCCN[C@H]3[C@@H](O)[C@H](N)C[C@H](N)[C@H]3O[C@H]3O[C@H](CN)[C@@H](O)[C@H](O)[C@H]3N)O2)c(=O)[nH]c1=O
17 µM	NC[C@H]1O[C@H](O[C@H]2[C@@H](NCCCCCCNC(=O)[C@H]3O[C@@H](n4cnc5c(N)ncnc54)[C@H](O)[C@@H]3O)[C@@H](O)[C@H](N)C[C@@H]2N)[C@H](N)[C@@H](O)[C@@H]1O
370 µM	Cc1cn([C@H]2C[C@H](O)[C@@H](CSCCO[C@@H]3O[C@H](CO[C@@H]4O[C@H](CN)[C@@H](O)[C@H](O)[C@H]4N)[C@@H](O)[C@H](O)[C@H]3N)O2)c(=O)[nH]c1=O
1100 µM	NC[C@H]1O[C@@H](OC[C@H]2O[C@@H](SCCCCCCSC[C@H]3O[C@@H](n4ccc(=O)[nH]c4=O)[C@H](O)[C@@H]3O)[C@H](N)[C@@H](O)[C@@H]2O)[C@H](N)[C@@H](O)[C@@H]1O
2000 µM	NC[C@H]1O[C@@H](OC[C@H]2O[C@@H](OC[C@H]3O[C@@H](n4ccc(=O)[nH]c4=O)[C@H](O)[C@@H]3O)[C@H](N)[C@@H](O)[C@@H]2O)[C@H](N)[C@@H](O)[C@@H]1O
667 µM	Cc1cn([C@H]2C[C@H](O)[C@@H](CO[C@@H]3O[C@H](CO[C@@H]4O[C@H](CN)[C@@H](O)[C@H](O)[C@H]4N)[C@@H](O)[C@H](O)[C@H]3N)O2)c(=O)[nH]c1=O
400 µM	Cc1cn([C@H]2C[C@H](O)[C@@H](CSCCCCCCS[C@@H]3O[C@H](COC4O[C@H](CN)[C@@H](O)[C@H](O)[C@H]4N)[C@@H](O)[C@H](O)[C@H]3O)O2)c(=O)[nH]c1=O (stereo partly specified)
667 µM	NC[C@H]1O[C@@H](OC[C@H]2O[C@@H](OCCSC[C@H]3O[C@@H](n4ccc(N)nc4=O)[C@H](O)[C@@H]3O)[C@H](N)[C@@H](O)[C@@H]2O)[C@H](N)[C@@H](O)[C@@H]1O
117 µM	Cc1cn([C@H]2C[C@H](O)[C@@H](CSCCCCCCS[C@@H]3O[C@H](CN)[C@@H](O)[C@H](O)[C@H]3O)O2)c(=O)[nH]c1=O
1250 µM	NC[C@H]1O[C@@H](SCCCCCCSC[C@H]2O[C@@H](n3ccc(=O)[nH]c3=O)[C@H](O)[C@@H]2O)[C@H](N)[C@@H](O)[C@@H]1O
